Source: article PMC10458893, “Design of Protegrin-1 Analogs with Improved Antibacterial Selectivity” (Pharmaceutics, 2023)
In brackets after ≈: the same amount, converted by molar mass. Where two headings read alike, the source gives them in different places. Positions of bridges follow the written chain, without caps; N, C: chain ends. Residues, ends and D or L forms follow the SMILES beside them.

What was measured:
[1] = tested on: human keratinocyte cell line (HaCaT); assay: Cytotoxicity MTT assay; format: cell-based; settings: 18 h, 128
Method: In order to evaluate the cytotoxicity of the peptides against a human keratinocyte cell line (HaCaT, Cat. No. 300493) (Cell Lines Service, Köln, Germany), the colorimetric 3-(4,5-dimethylthiazol-2-yl)-2,5-diphenyltetrazolium bromide (MTT) dye reduction assay was performed, as described in a previous publication. Wells containing no peptide were used as a 100% survival control. Each peptide was tested in two separate experiments to ensure the reliability of the results.

M. luteus B-1314 = format: cell-based, Micrococcus luteus; settings: B-1314, 24 h
Method: (§1) The antimicrobial activity of the peptides was determined using two-fold serial dilutions in sterile 96-well flat-bottom polystyrene microplates (Eppendorf, Hamburg, Germany) (Cat. No. 0030730011), as previously described. The following strains of bacteria were used: E. coli ATCC 25922, E. coli ML35p (ATCC collection), E. coli BW 25113 (Keio collection), Pseudomonas aeruginosa PAO1 (ATCC collection), P. aeruginosa ATCC 27853, Klebsiella pneumoniae ATCC 700603, Staphylococcus aureus 209P (ATCC collection), S. aureus ATCC 29213, and Micrococcus luteus B-1314 (VKM collection). Acinetobacter baumannii (strain XDR CI 2675) was provided by the I.M. Sechenov First Moscow State Medical University hospital. After a 24 h incubation period, the metabolic activity of the bacteria was assessed by adding 20 µL of a redox indicator, resazurin (Sigma-Aldrich, St. Louis, MO, USA), at a concentration of 0.1 mg/mL, to the wells. The plate was then incubated for a further two hours. The minimum inhibitory concentration (MIC) was determined as the lowest concentration of the peptide at which no color change in the resazurin indicator was observed. The results were presented as median values, which were determined based on at least three independent experiments carried out in triplicate.

[2] = tested on: freshly isolated human erythrocytes (hRBCs); assay: Hemolysis assay (hemoglobin release); format: cell-based; settings: red cells of human, 64
Text: To assess the hemolytic activity of the compounds, freshly isolated human erythrocytes (hRBCs) were used according to the methodology described in a previous study. Melittin was used as a positive peptide control that induces significant hemolysis. Isotonic phosphate buffer (PBS) served as a negative control, while 0.1% Triton X-100 solution was used as a control for complete hemolysis.

P. aeruginosa ATCC 27853 = format: cell-based, Pseudomonas aeruginosa; settings: ATCC 27853, 24 h
Method: as §1

P. aeruginosa PAO1 = format: cell-based, Pseudomonas aeruginosa; settings: PAO1, 24 h
Method: as §1

S. aureus 209P = format: cell-based, Staphylococcus aureus; settings: 24 h
Method: as §1

S. aureus ATCC 29213 = format: cell-based, Staphylococcus aureus; settings: ATCC 29213, 24 h
Method: as §1

all the test strains = format: cell-based; settings: geometric mean over the 10 test strains
Method: as §1

E. coli BW 25113 = format: cell-based; settings: two-fold serial dilutions, 24 h incubation, resazurin read-out; median of at least three independent experiments in triplicate
Method: as §1

[3] = tested on: Acinetobacter baumannii (strain XDR CI 2675); format: cell-based
Method: as §1

E. coli ATCC 25922 = format: cell-based; settings: ATCC 25922, 24 h
Method: as §1

E. coli ML35p = format: cell-based
Method: as §1

[4] = tested on: K. pneumoniae ATCC 700603; format: cell-based, Klebsiella pneumoniae; settings: ATCC 700603, 24 h
Method: as §1

[5] = strain XDR CI 2675, two-fold serial dilutions, 24 h incubation, resazurin read-out, median of at least three independent experiments in triplicate
[6] = two-fold serial dilutions, 24 h incubation, resazurin read-out, median of at least three independent experiments in triplicate

SMILES | Cell Viability, % (128 μM) [1] | MIC, M. luteus B-1314 (M. luteus B-1314) [µM] | Hemolytic activity, % (64 μM) [2] | MIC, P. aeruginosa ATCC 27853 (P. aeruginosa ATCC 27853) [µM] | MIC, P. aeruginosa PAO1 (P. aeruginosa PAO1) [µM] | MIC, S. aureus 209P (S. aureus 209P) [µM] | MIC, S. aureus ATCC 29213 (S. aureus ATCC 29213) [µM] | MIC (GM), geometric mean of the peptide's MICs against all the test strains (all the test strains) [µM] | MIC, E. coli BW 25113 (E. coli BW 25113) [µM] | MIC, A. baumannii [3, 5] [µM] | MIC, E. coli ATCC 25922 (E. coli ATCC 25922) [µM] | MIC, E. coli ML35p (E. coli ML35p; [6]) [µM] | MIC, K. pneumoniae ATCC 700603 [4] [µM] | MIC, A. baumannii ([3]; strain XDR CI 2675, 24 h) [µM] | MIC, E. coli ML35p (E. coli ML35p; ML35p, 24 h) [µM]
CC(C)C[C@H](NC(=O)[C@H](CCCNC(=N)N)NC(=O)CNC(=O)CNC(=O)[C@@H](N)CCCNC(=N)N)C(=O)N[C@H]1CSSC[C@@H](C(=O)N[C@H](C(=O)NCC(=O)N[C@@H](CCCNC(=N)N)C(=O)O)C(C)C)NC(=O)[C@H](C(C)C)NC(=O)[C@@H]2CSSC[C@H](NC(=O)[C@H](CCCNC(=N)N)NC1=O)C(=O)N[C@@H](CCCNC(=N)N)C(=O)N[C@@H](CCCNC(=N)N)C(=O)N[C@@H](CCCNC(=N)N)C(=O)N[C@@H](Cc1ccccc1)C(=O)N2 [[Y7R]] (H-RGGRLCRCRRRFCVCVGR-OH; disulfide 6-15, 8-13; N-terminus and C-terminus assumed) | 67.6 (± 8.68) % | 2 (≈ 4.3 µg/mL) | 2.1 (±0.53) % | 4 (≈ 8.6 µg/mL) | 8 (≈ 17.2 µg/mL) | 16 (≈ 34.4 µg/mL) | 16 (≈ 34.4 µg/mL) | 2.5 | 0.5 (≈ 1.07 µg/mL) | 0.5 (≈ 1.07 µg/mL) | 0.5 (≈ 1.07 µg/mL) | 0.5 (≈ 1.07 µg/mL) | 8 (≈ 17.2 µg/mL) |  | 
CC(C)[C@H](NC(=O)[C@@H]1CSSC[C@H](NC(=O)[C@H](C)NC(=O)[C@H](CCCNC(=N)N)NC(=O)CNC(=O)CNC(=O)[C@@H](N)CCCNC(=N)N)C(=O)N[C@@H](Cc2ccc(O)cc2)C(=O)N[C@H]2CSSC[C@H](NC(=O)[C@H](Cc3ccccc3)NC(=O)[C@H](CCCNC(=N)N)NC(=O)[C@H](CCCNC(=N)N)NC(=O)[C@H](CCCNC(=N)N)NC2=O)C(=O)N[C@@H](C(C)C)C(=O)N1)C(=O)NCC(=O)N[C@@H](CCCNC(=N)N)C(=O)O [[L5A]] (H-RGGRACYCRRRFCVCVGR-OH; disulfide 6-15, 8-13; N-terminus and C-terminus assumed) | 10.0 (±3.27) % | 0.5 (≈ 1.06 µg/mL) | 40.3 (±6.95) % | 0.25 (≈ 0.529 µg/mL) | 0.5 (≈ 1.06 µg/mL) | 1 (≈ 2.11 µg/mL) | 1 (≈ 2.11 µg/mL) | 0.4 | 0.125 (≈ 0.264 µg/mL) | 0.25 (≈ 0.529 µg/mL) | 0.5 (≈ 1.06 µg/mL) | 0.25 (≈ 0.529 µg/mL) | 1 (≈ 2.11 µg/mL) |  | 
CC(C)C[C@H](NC(=O)[C@H](CCCNC(=N)N)NC(=O)CNC(=O)CNC(=O)[C@@H](N)CCCNC(=N)N)C(=O)N[C@H]1CSSC[C@@H](C(=O)N[C@@H](C)C(=O)NCC(=O)N[C@@H](CCCNC(=N)N)C(=O)O)NC(=O)[C@H](C(C)C)NC(=O)[C@@H]2CSSC[C@H](NC(=O)[C@H](Cc3ccc(O)cc3)NC1=O)C(=O)N[C@@H](CCCNC(=N)N)C(=O)N[C@@H](CCCNC(=N)N)C(=O)N[C@@H](CCCNC(=N)N)C(=O)N[C@@H](Cc1ccccc1)C(=O)N2 [[V16A]] (H-RGGRLCYCRRRFCVCAGR-OH; disulfide 6-15, 8-13; N-terminus and C-terminus assumed) | 8.0 (± 5.35) % | 0.5 (≈ 1.06 µg/mL) | 47.8 (±11.96) % | 0.5 (≈ 1.06 µg/mL) | 0.25 (≈ 0.532 µg/mL) | 1 (≈ 2.13 µg/mL) | 1 (≈ 2.13 µg/mL) | 0.4 | 0.25 (≈ 0.532 µg/mL) |  | 0.5 (≈ 1.06 µg/mL) |  | 1 (≈ 2.13 µg/mL) | 0.125 (≈ 0.266 µg/mL) | 0.125 (≈ 0.266 µg/mL)
CC(C)[C@@H]1NC(=O)[C@@H]2CSSC[C@H](NC(=O)[C@H](Cc3ccc(O)cc3)NC(=O)[C@@H](NC(=O)[C@H](C)NC(=O)[C@H](CCCNC(=N)N)NC(=O)CNC(=O)CNC(=O)[C@@H](N)CCCNC(=N)N)CSSC[C@@H](C(=O)N[C@@H](CCCNC(=N)N)C(=O)NCC(=O)N[C@@H](CCCNC(=N)N)C(=O)O)NC1=O)C(=O)N[C@@H](CCCNC(=N)N)C(=O)N[C@@H](CCCNC(=N)N)C(=O)N[C@@H](CCCNC(=N)N)C(=O)N[C@@H](Cc1ccccc1)C(=O)N2 [[L5A,V16R]] (H-RGGRACYCRRRFCVCRGR-OH; disulfide 6-15, 8-13; N-terminus and C-terminus assumed) | 94.1 (± 3.51) % | 4 (≈ 8.69 µg/mL) | 1.0 (±0.01) % | 4 (≈ 8.69 µg/mL) | 8 (≈ 17.4 µg/mL) | 32 (≈ 69.5 µg/mL) | 32 (≈ 69.5 µg/mL) | 4.9 | 2 (≈ 4.34 µg/mL) |  | 2 (≈ 4.34 µg/mL) |  | 32 (≈ 69.5 µg/mL) | 0.5 (≈ 1.09 µg/mL) | 1 (≈ 2.17 µg/mL)
CC(C)C[C@H](NC(=O)[C@H](CCCNC(=N)N)NC(=O)CNC(=O)CNC(=O)[C@@H](N)CCCNC(=N)N)C(=O)N[C@H]1CSSC[C@@H](C(=O)N[C@H](C(=O)NCC(=O)N[C@@H](CCCNC(=N)N)C(=O)O)C(C)C)NC(=O)[C@H](C)NC(=O)[C@@H]2CSSC[C@H](NC(=O)[C@H](Cc3ccc(O)cc3)NC1=O)C(=O)N[C@@H](CCCNC(=N)N)C(=O)N[C@@H](CCCNC(=N)N)C(=O)N[C@@H](CCCNC(=N)N)C(=O)N[C@@H](Cc1ccccc1)C(=O)N2 [[V14A]] (H-RGGRLCYCRRRFCACVGR-OH; disulfide 6-15, 8-13; N-terminus and C-terminus assumed) | 12.05 (± 2.8) % | 0.5 (≈ 1.06 µg/mL) | 39.0 (±10.2) % | 0.25 (≈ 0.532 µg/mL) | 0.5 (≈ 1.06 µg/mL) | 1 (≈ 2.13 µg/mL) | 1 (≈ 2.13 µg/mL) | 0.4 | 0.125 (≈ 0.266 µg/mL) |  | 0.5 (≈ 1.06 µg/mL) |  | 1 (≈ 2.13 µg/mL) | 0.125 (≈ 0.266 µg/mL) | 0.25 (≈ 0.532 µg/mL)
